The text below walks through data of patent publication US4080466A, “Pharmaceutical compositions containing 4-hydroxyl-1,3-dithiolan-2-ylidene malonates” (Nihon Nohyaku Co., Ltd., priority 1976, dated 1978).

In data set [1] the test system is acute liver damage induced by carbon tetrachloride. Nature of the data set: Protective Effect on Acute Liver Damage associated with Centrilobular Necrosis (carbon tetrachloride). It is filed as in vivo, mice (dd-strain). The settings on record: 250 mg/kg oral, average of 5 to 6 mice; for Liver damage index: 6 h before CCl4 (0.05 ml/kg oral), score 0 Normal, 2 slight, 4 clear, 6 heavy damage; for p-GPT (plasma glutamic-pyruvic transaminase activity): 6 h before CCl4, 24 h after CCl4, values over 1,000 regarded as 1,000. The source says: Carbon tetrachloride (CCl4) administration induces centrilobular necrosis of the liver associated with loss of diphosphopyridine nucleotide, hepatic glycogen, coenzyme A and increase in neutral fat. Release of several enzymes from the hepatocytes, and increase of enzyme activities in the plasma are recognized as the result of the damage of the liver. A suitable means for evaluating the degree of damage induced by CCl4 or the degree of protection afforded by drugs is to study the plasma glutamic-pyruvic transminase (p-GPT) activity.
Methods: The test compounds were dissolved or suspended in olive oil and administered orally at the dose of 250 mg/kg to the mice (Four-week-old male mice-dd strain). After 6 hours, CCl4 was administered orally (0.05 ml/kg as olive oil solution). Animals were killed 24 hours after CCl4 administration, and the liver was grossly observed. The plasma was obtained by centrifugation. Activities of p-GPT were determined by the method of Reitman and Frankel and expressed in Karmen units.
Score for liver damage index was as follows:
4 Clearly observable damage
Each figure indicates average of 5 to 6 mice. Values of p-GPT over 1,000 Karmen unit regarded as 1,000 for calculation of average for convenience.

The next data set can be described thus: acute oral toxicity. The settings on record: mouse, in vivo, male mice. The source says:
Further, these compounds have no detrimental effects on test animals administered therewith, so far as the doses thereof are within an ordinary administration range.

The test system of data set [2] is glucose metabolism. Nature of the data set: Effect on glucose metabolism. It is filed as in vivo, mice. The settings on record: 250 mg/kg oral, 6 h before glucose 4.0 g/kg. As to the method:
The test compounds dissolved in olive oil and administered orally at the dose of 250 mg/kg to the mice. After 6 hours, 4.0 g/kg of glucose was orally administered. The same amount of glucose was given to the control animals. 0.02 ml of blood was taken from caudal vein of the mice at 30, 60, 90 and 120 min. after glucose administration. Blood sugar was measured by the procedure of Somogyi-Nelson. Number of animals used was 5 to 6 mice for each treatment.

The test system of data set [3] is glucose metabolism. Nature of the data set: Effect on glucose metabolism. It is filed as in vivo, mice. The settings on record: 250 mg/kg oral, 6 h before glucose 4.0 g/kg; 0 min.
The test system of data set [4] is acute liver damage induced by allyl alcohol. Nature of the data set: Protective Effect on Acute Liver Damage associated with Periportal Necrosis (allyl alcohol), BSP test. The data set is classed as in vivo, mouse (dd-strain). The settings on record: 100 mg/kg oral, 6 h before allyl alcohol (0.075 mg/kg oral); 24 h. On the procedure: The compund of this invention or anethol trithion was orally administered to the male mouse (4 week-old, dd-strain) at the dose of 100 mg/kg. Six hours after it, allyl alcohol was orally administered at the dose of 0.075 mg/kg. Twenty four hours after it, the animals were sacrificed to collect blood samples.

Data set [5] concerns acute hepatitis induced by D-galactosamine. Nature of the data set: Protective Effect on Acute Hepatitis associated with Mesenchymal Reaction and Discrete Lobular Necrosis (D-galactosamine). The data set is classed as in vivo, rat (SD strain). The settings on record: 100 mg/kg oral, 6 h before D-galactosamine 600 mg/kg i.p. (+ 300 mg/kg). As to the method: D-Galactosamine is a compound which induces a discrete lobular necrosis associated with mesenchymal reaction similar to the change observed in human viral hepatitis, so that it is frequently used in producing a model for viral hepatitis.
The compound of this invention or anethol trithion was administered orally to the male rat (SD strain) at the dose of 100 mg/kg. Six hours after it, D-galactosamine was intraperitoneally administered at the dose of 600 mg/kg. Four hours after it, an additional 300 mg/kg was administered intraperitoneally. Eight hours after it, the animals were sacrificed to collect the blood samples. P-GPT activity and triglyceride in the liver were measured to evaluate the effect of the compound of this invention.

`CC(C)OC(=O)C(C(=O)OC(C)C)=C1SCC(O)S1` (stereo not shown) [Compound 2, Diisopropyl 4-hydroxy-1,3-dithiolan-2-ylidene malonate] showed a Liver damage index in data set [1] of 0.1. Also, the “p-GPT (plasma glutamic-pyruvic transaminase activity)” value in data set [1] turned out to be 20 Karmen units. Further, in “acute oral toxicity”, the LD50 is > 6590 mg/kg. The “Blood Sugar” value was 247 ± 20.2 mg/dL in the data set with glucose metabolism [2] (30 min); 212 ± 13.1 mg/dL with glucose metabolism [2] (60 min); 177 ± 15.5 mg/dL in the data set on glucose metabolism [2] (90 min); 130 ± 10.8 mg/dL with glucose metabolism [2] (120 min); 136 ± 12.3 mg/dL with glucose metabolism [3]. In addition, the “BSP (residual quantity)” value in data set [4] was 17.1 ± 3.8. This compound also displayed a Triglyceride in liver in data set [5] of 7.0 ± 0.82 mg/g. The compound further had a p-GPT in data set [5] of 73 ± 13 Karmen unit.

As to `CCOC(=O)C(C(=O)OC(C)C)=C1SCC(O)S1` (stereo not shown) [Compound 4, Ethyl isopropyl 4-hydroxy-1,3-dithiolan-2-ylidene malonate], in data set [1], the Liver damage index was found to be 0.1 and the “p-GPT (plasma glutamic-pyruvic transaminase activity)” value stood at 40 Karmen units.

The term LD50 denotes the dose at which mortality reaches 50%. A low value points to a more toxic substance.
